Test results: PMC7180728, “Novel Anthraquinone Compounds Inhibit Colon Cancer Cell Proliferation via the Reactive Oxygen Species/JNK Pathway” (Molecules, 2020)
Values after ≈ are worked out from the molar mass of the structure shown.

What was measured:
SGC-7901 = assay: MTT cell proliferation assay, SGC-7901; format: cell-based, human; conditions: Homo sapiens, SGC-7901, 48 h, SGC-7901 gastric cancer, read-out: IC50
Procedure: (§1) The effects of the synthesized amide anthraquinone derivatives on the proliferative activity of eight human cancerous cell lines (EC9706, MCF-7, SGC-7901, HepG2, QBC939, HeLa, HCT116 and SW480) in addition to two normal human cell lines (colorectal FHC and liver HL7702) were evaluated using the standard MTT assay.
(§2) The human esophageal cancer cell line EC9706 was obtained from Cancer Hospital and Institute by Prof. Ming Rong Wang, Chinese Academy Medical of Sciences. The human colorectal carcinoma cell lines HCT116 and SW480, hepatoma cell line HepG2, cervical carcinoma cell line HeLa, breast cancer cell line MCF-7, gastric cancer cell line SGC-7901, cholangiocarcinoma cell line QBC939, normal fetal colon cell line FHC and liver cell line HL-7702 were obtained from the Cell Bank of the Shanghai Chinese Academy of Sciences. All cells were cultured in RPMI 1640 medium containing 100 U/mL penicillin and streptomycin and 10% fetal bovine serum and maintained at 37°C under a 5% CO2 atmosphere.
(§3) We analyzed the inhibitory effects of eight anthraquinone-amino acid derivatives on the proliferation of eight tumor cell lines and two normal cell lines in vitro using MTT assays. Cells were added to a 96-well plate with (5,000 cells per well in 100 µL RPMI-1640 medium). Cells were treated with different concentrations (10–100 μg/mL) of 8a–8h for 48 h and then incubated with 20 μL MTT (5 mg/mL) for another 4 h at 37°C. DMSO (150 μL) was then added to each well to dissolve the formazan crystals. The absorbance of each well was read at 490 nm on a microtiter plate ELISA reader. The mean values were obtained from a minimum of three parallel experiments. IC50 values were calculated.

cytochrome c = assay: Western blot, cytochrome c in cytoplasm and mitochondria; format: cell-based, human; conditions: 10 or 20 μg/mL, 24 h, HCT116, western blot
Procedure: Decreased mitochondrial membrane potential is a hallmark of early cell apoptosis, and a decrease in mitochondrial membrane potential leads to the release of certain mitochondrial proteins, such as cytochrome c, which mediate apoptosis. Therefore, we examined changes in mitochondrial membrane potential by flow cytometry. HCT116 cells were treated with 8a (10 or 20 μg/mL) for 24 h and then stained with 2 μg/mL JC-1 for 30 min prior to flow cytometric analysis. Green /orange fluorescence ratio of JC-1, compare with control, is 200% and 494.4%, respectively (Figure 8E,F). […] During apoptosis, mitochondrial cytochrome C is released into the cytoplasm and triggers the activation cascade of caspase. HCT116 cells were collected after 8a treatment, cytoplasmic protein and mitochondrial protein were extracted. The levels of cytochrome c in the cytoplasm and mitochondria were detected by Western blotting. After treatment of HCT116 cells with 8a (10 or 20 μg/mL) for 24 h, cytoplasmic levels of cytochrome c increased, while the levels in the mitochondria decreased.
The expression of signaling pathway-related proteins was detected by western blot analysis. Cell (1 × 10^6) were plated in 90-mm dishes and treated with 8a for 24 h. The cells were treated with NAC in the same way as in step 4.7. […] Protein concentrations in the supernatant were determined by using a Minbio BCA protein assay kit. […]

HepG2 = assay: MTT cell proliferation assay, HepG2; format: cell-based; conditions: Homo sapiens, HepG2 liver cancer, 48 h
Procedure: as §1, §2, §3

QBC939 = assay: MTT cell proliferation assay, QBC939; format: cell-based; conditions: Homo sapiens, QBC939 cholangiocarcinoma, 48 h
Procedure: as §1, §2, §3

HL-7702 = assay: MTT cell proliferation assay, normal liver cells HL-7702; format: cell-based; conditions: L02, HL-7702 normal human hepatocyte, 48 h
Procedure: as §1, §2, §3

HCT116 cells = assay: MTT cell viability with or without zVAD-FMK; format: cell-based, human; conditions: Homo sapiens, HCT-116, 8a 20 μg/mL alone, 24 h
Text: Caspases represent a key molecular group in the regulation of apoptosis. In caspases, there is an upstream and downstream relationship between the initiator of apoptosis and executioner. Caspase 3 is one of the key executers of apoptosis, as it is either partially or totally responsible for the proteolytic cleavage of many key proteins. For example, when caspase 9 is activated, it activates caspase 3, which ultimately triggers cell apoptosis. After detecting the expression of the corresponding Bcl-2 family proteins after 8a treatment by western blotting, we went on to detect the expression levels of PARP, caspase 9, cleaved caspase 9, caspase 3, and cleaved caspase 3 proteins. […] After 24 h of treatment with zVAD-FMK, cell viability is 93%.
Figure 7 Effect of 8a on apoptosis-related protein expression. […] PARP, caspase 3, cleaved caspase 3, caspase 9, cleaved caspase 9, Bcl-2, phosphorylated Bcl-2, Bcl-XL, phosphorylated Bcl-xL and Bax were detected by western blot analysis; β-actin was used as a loading control in each lane. Representative data of three independent experiments are shown; (C) and (D) Grayscale analysis of the relative expression of apoptosis-related proteins detected by Western blotting. […] (E) Cells were exposed to 8a (20 μg/mL) and/or zVAD-FMK ([…]) for 24 h, and cell viability was measured by MTT assay. […]

CC(C)CC(NC(=O)c1ccc2c(c1[N+](=O)[O-])C(=O)c1ccccc1C2=O)C(=O)O (stereo not shown) [Compound 8a, N-[(9,10-dihydro-1-nitro-9,10-dioxo-2-anthracenyl)carbonyl-leucine]]
IC50 (SGC-7901): 55.82 ± 0.16 µg/mL (≈ 136 µM)
cytochrome c levels in the mitochondria (cytochrome c): decreased
cytoplasmic levels of cytochrome c (cytochrome c): increased
IC50 (HepG2): 44.65 ± 0.03 µg/mL (≈ 109 µM)
IC50 (QBC939): 43.13 ± 0.05 µg/mL (≈ 105 µM)
IC50 (HL-7702): > 1000 µg/mL
viability at 20 µg/mL (HCT116 cells): 38%
